{
  "source": "ChEMBL document CHEMBL3853298",
  "about": "“Total synthesis and in vitro bioevaluation of clavaminols A, C, H & deacetyl clavaminol H as potential chemotherapeutic and antibiofilm agents” (Eur J Med Chem, 2016)",
  "format_in_all_cases": "functional, cell-based",
  "key": {"[1]": {"test": "Cytotoxicity against human MCF7 cells assessed as cell growth inhibition by MTT assay"}, "[2]": {"test": "Cytotoxicity against human SKOV3 cells assessed as cell growth inhibition by MTT assay", "details": "SK-OV-3"}, "[3]": {"test": "Cytotoxicity against human DU145 cells assessed as cell growth inhibition by MTT assay", "details": "DU-145"}, "[4]": {"test": "Cytotoxicity against human HeLa cells assessed as cell growth inhibition by MTT assay"}},
  "data": [
    {"smiles": "CCCCCCCCC[C@H](O)[C@@H](C)NC(C)=O", "note": "[CLAVAMINOL C]", "values": [
      {"measurement": "IC50", "setting": "[1]", "result": 16.3, "unit": "µM"},
      {"measurement": "IC50", "setting": "[2]", "result": 14.1, "unit": "µM"},
      {"measurement": "IC50", "setting": "[3]", "result": 18.3, "unit": "µM"},
      {"measurement": "IC50", "setting": "[4]", "result": 18.5, "unit": "µM"}
    ]}
  ]
}
